According to ChEMBL document CHEMBL3217454, “Structureactivity relationship studies using peptide arrays: the example of HIV-1 Revintegrase interaction” (Medchemcomm, 2013):
Square brackets hold non-standard residues; d marks the D form. Peptide text beside a SMILES is read from it. NMeF = CN[C@@H](Cc1ccccc1)C(=O)O; NMeM = CN[C@@H](CCSC)C(=O)O; NMeA = CN[C@@H](C)C(=O)O

Experiments:
[1] = molecular target: Human immunodeficiency virus type 1 integrase (Human immunodeficiency virus 1) (UniProt Q7ZJM1); assay: Binding affinity to HIV-1 integrase measured after overnight incubation by chemiluminescence analysis relative to IN 174-188; set-up: concentration or dose not given beside the values
Chain of Human immunodeficiency virus type 1 integrase (Human immunodeficiency virus 1) (Q7ZJM1 as listed by the source): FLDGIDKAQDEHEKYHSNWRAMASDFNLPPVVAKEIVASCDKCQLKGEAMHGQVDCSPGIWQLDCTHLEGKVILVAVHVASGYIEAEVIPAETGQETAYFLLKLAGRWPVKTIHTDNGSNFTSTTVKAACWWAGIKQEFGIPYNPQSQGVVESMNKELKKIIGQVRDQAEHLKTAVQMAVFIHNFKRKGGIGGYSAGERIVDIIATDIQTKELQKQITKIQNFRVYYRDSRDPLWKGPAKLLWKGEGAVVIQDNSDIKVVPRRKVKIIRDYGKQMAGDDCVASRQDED

[2] = system: Human immunodeficiency virus 1; assay: Binding affinity to HLT-tagged HIV-1 Rev measured after overnight incubation by chemiluminescence analysis relative to IN 174-188; set-up: concentration or dose not given beside the values

SMILES	Activity [1]	Activity [2]
CC[C@H](C)[C@H](NC(=O)[C@H](Cc1ccccc1)NC(=O)[C@@H](NC(=O)[C@H](C)NC(=O)[C@H](CCSC)NC(=O)[C@@H](CCC(N)=O)NC(=O)[C@@H](NC(=O)[C@H](C)NC(=O)[C@@H](N)[C@@H](C)O)C(C)C)C(C)C)C(=O)N[C@@H](Cc1cnc[nH]1)C(=O)N[C@@H](CC(N)=O)C(=O)N[C@@H](Cc1ccccc1)C(=O)N[C@@H](CCCCN)C(=O)N[C@@H](CCCNC(=N)N)C(=O)N[C@@H](CCCCN)C(=O)O	154%	173%
CC[C@H](C)[C@H](NC(=O)[C@H](Cc1ccccc1)NC(=O)[C@@H](NC(=O)[C@H](C)NC(=O)[C@H](CCSC)NC(=O)[C@H](CCC(N)=O)NC(=O)[C@@H](NC(=O)[C@H](C)NC(=O)[C@@H](N)[C@@H](C)O)C(C)C)C(C)C)C(=O)N[C@@H](Cc1cnc[nH]1)C(=O)N[C@@H](CC(N)=O)C(=O)N[C@@H](Cc1ccccc1)C(=O)N[C@@H](CCCCN)C(=O)N[C@@H](C)C(=O)N[C@@H](CCCCN)C(=O)O (H-TAVQMAVFIHNFKAK-OH)	127%	234%
CC[C@H](C)[C@H](NC(=O)[C@H](Cc1ccccc1)NC(=O)[C@@H](NC(=O)[C@H](C)NC(=O)[C@H](CCSC)NC(=O)[C@H](CCC(N)=O)NC(=O)[C@@H](NC(=O)[C@H](C)NC(=O)[C@@H](N)[C@@H](C)O)C(C)C)C(C)C)C(=O)N[C@@H](Cc1cnc[nH]1)C(=O)N[C@@H](CC(N)=O)C(=O)N[C@@H](Cc1ccccc1)C(=O)N[C@H](CCCCN)C(=O)N[C@@H](CCCNC(=N)N)C(=O)N[C@@H](CCCCN)C(=O)O	110%	120%
CC[C@H](C)[C@H](NC(=O)[C@H](Cc1ccccc1)NC(=O)[C@@H](NC(=O)[C@H](C)NC(=O)[C@H](CCSC)NC(=O)[C@@H](N)CCC(N)=O)C(C)C)C(=O)N[C@@H](Cc1cnc[nH]1)C(=O)N[C@@H](CC(N)=O)C(=O)N[C@@H](Cc1ccccc1)C(=O)N[C@@H](CCCCN)C(=O)N[C@@H](CCCNC(=N)N)C(=O)N[C@@H](CCCCN)C(=O)O (H-QMAVFIHNFKRK-OH)	122%	135%
CSCC[C@H](NC(=O)[C@H](CCC(N)=O)NC(=O)[C@@H](NC(=O)[C@H](C)NC(=O)[C@@H](N)[C@@H](C)O)C(C)C)C(=O)N[C@@H](C)C(=O)N[C@H](C(=O)N[C@@H](Cc1ccccc1)C(=O)O)C(C)C (H-TAVQMAVF-OH)	0%	0%
CC[C@H](C)[C@H](NC(=O)[C@H](Cc1ccccc1)NC(=O)[C@@H](NC(=O)[C@H](C)NC(=O)[C@H](CCSC)NC(=O)[C@H](CCC(N)=O)NC(=O)[C@@H](NC(=O)[C@H](C)NC(=O)[C@@H](N)[C@@H](C)O)C(C)C)C(C)C)C(=O)N[C@@H](Cc1cnc[nH]1)C(=O)N[C@@H](CC(N)=O)C(=O)N[C@@H](Cc1ccccc1)C(=O)N[C@@H](CCCCN)C(=O)N[C@H](CCCNC(=N)N)C(=O)N[C@@H](CCCCN)C(=O)O	93%	169%
CC[C@H](C)[C@H](NC(=O)[C@@H](Cc1ccccc1)NC(=O)[C@@H](NC(=O)[C@H](C)NC(=O)[C@H](CCSC)NC(=O)[C@H](CCC(N)=O)NC(=O)[C@@H](NC(=O)[C@H](C)NC(=O)[C@@H](N)[C@@H](C)O)C(C)C)C(C)C)C(=O)N[C@@H](Cc1cnc[nH]1)C(=O)N[C@@H](CC(N)=O)C(=O)N[C@@H](Cc1ccccc1)C(=O)N[C@@H](CCCCN)C(=O)N[C@@H](CCCNC(=N)N)C(=O)N[C@@H](CCCCN)C(=O)O	120%	231%
CC[C@H](C)[C@H](NC(=O)[C@H](Cc1ccccc1)NC(=O)[C@@H](NC(=O)[C@H](C)NC(=O)[C@H](C)NC(=O)[C@H](CCC(N)=O)NC(=O)[C@@H](NC(=O)[C@H](C)NC(=O)[C@@H](N)[C@@H](C)O)C(C)C)C(C)C)C(=O)N[C@@H](Cc1cnc[nH]1)C(=O)N[C@@H](CC(N)=O)C(=O)N[C@@H](Cc1ccccc1)C(=O)N[C@@H](CCCCN)C(=O)N[C@@H](CCCNC(=N)N)C(=O)N[C@@H](CCCCN)C(=O)O (H-TAVQAAVFIHNFKRK-OH)	113%	172%
CC[C@H](C)[C@H](NC(=O)[C@H](Cc1ccccc1)NC(=O)[C@@H](NC(=O)[C@H](C)NC(=O)[C@H](CCSC)NC(=O)[C@H](CCC(N)=O)NC(=O)[C@@H](NC(=O)[C@H](C)NC(=O)[C@@H](N)[C@@H](C)O)C(C)C)C(C)C)C(=O)N[C@@H](Cc1cnc[nH]1)C(=O)N[C@@H](CC(N)=O)C(=O)N[C@@H](Cc1ccccc1)C(=O)O (H-TAVQMAVFIHNF-OH)	0%	0%
CC[C@H](C)[C@H](NC(=O)[C@H](Cc1ccccc1)N(C)C(=O)[C@@H](NC(=O)[C@H](C)NC(=O)[C@H](CCSC)NC(=O)[C@H](CCC(N)=O)NC(=O)[C@@H](NC(=O)[C@H](C)NC(=O)[C@@H](N)[C@@H](C)O)C(C)C)C(C)C)C(=O)N[C@@H](Cc1cnc[nH]1)C(=O)N[C@@H](CC(N)=O)C(=O)N[C@@H](Cc1ccccc1)C(=O)N[C@@H](CCCCN)C(=O)N[C@@H](CCCNC(=N)N)C(=O)N[C@@H](CCCCN)C(=O)O (H-TAVQMAV[NMeF]IHNFKRK-OH)	141%	152%
CC[C@H](C)[C@H](NC(=O)[C@H](Cc1ccccc1)NC(=O)[C@@H](NC(=O)[C@H](C)NC(=O)[C@H](CCSC)N(C)C(=O)[C@H](CCC(N)=O)NC(=O)[C@@H](NC(=O)[C@H](C)NC(=O)[C@@H](N)[C@@H](C)O)C(C)C)C(C)C)C(=O)N[C@@H](Cc1cnc[nH]1)C(=O)N[C@@H](CC(N)=O)C(=O)N[C@@H](Cc1ccccc1)C(=O)N[C@@H](CCCCN)C(=O)N[C@@H](CCCNC(=N)N)C(=O)N[C@@H](CCCCN)C(=O)O (H-TAVQ[NMeM]AVFIHNFKRK-OH)	103%	134%
CSCC[C@H](NC(=O)[C@H](CCC(N)=O)NC(=O)[C@@H](NC(=O)[C@H](C)NC(=O)[C@@H](N)[C@@H](C)O)C(C)C)C(=O)N[C@@H](C)C(=O)N[C@H](C(=O)N[C@@H](Cc1ccccc1)C(=O)N[C@@H](C)C(=O)N[C@@H](Cc1cnc[nH]1)C(=O)N[C@@H](CC(N)=O)C(=O)N[C@@H](Cc1ccccc1)C(=O)N[C@@H](CCCCN)C(=O)N[C@@H](CCCNC(=N)N)C(=O)N[C@@H](CCCCN)C(=O)O)C(C)C (H-TAVQMAVFAHNFKRK-OH)	156%	254%
CC[C@H](C)[C@H](NC(=O)[C@H](Cc1ccccc1)NC(=O)[C@@H](N)C(C)C)C(=O)N[C@@H](Cc1cnc[nH]1)C(=O)N[C@@H](CC(N)=O)C(=O)N[C@@H](Cc1ccccc1)C(=O)N[C@@H](CCCCN)C(=O)N[C@@H](CCCNC(=N)N)C(=O)N[C@@H](CCCCN)C(=O)O (H-VFIHNFKRK-OH)	132%	86%
CC[C@H](C)[C@H](NC(=O)[C@H](Cc1ccccc1)NC(=O)[C@@H](NC(=O)[C@H](C)NC(=O)[C@H](CCSC)NC(=O)[C@H](CCC(N)=O)NC(=O)[C@@H](N)C(C)C)C(C)C)C(=O)N[C@@H](Cc1cnc[nH]1)C(=O)N[C@@H](CC(N)=O)C(=O)N[C@@H](Cc1ccccc1)C(=O)N[C@@H](CCCCN)C(=O)N[C@@H](CCCNC(=N)N)C(=O)N[C@@H](CCCCN)C(=O)O (H-VQMAVFIHNFKRK-OH)	133%	104%
CC[C@H](C)[C@H](NC(=O)[C@H](Cc1ccccc1)NC(=O)[C@@H](NC(=O)[C@H](C)NC(=O)[C@@H](N)CCSC)C(C)C)C(=O)N[C@@H](Cc1cnc[nH]1)C(=O)N[C@@H](CC(N)=O)C(=O)N[C@@H](Cc1ccccc1)C(=O)N[C@@H](CCCCN)C(=O)N[C@@H](CCCNC(=N)N)C(=O)N[C@@H](CCCCN)C(=O)O (H-MAVFIHNFKRK-OH)	106%	88%
CC[C@H](C)[C@H](NC(=O)[C@H](Cc1ccccc1)NC(=O)[C@@H](NC(=O)[C@H](C)NC(=O)[C@H](CCSC)NC(=O)[C@H](CCC(N)=O)NC(=O)[C@@H](NC(=O)[C@H](C)N(C)C(=O)[C@@H](N)[C@@H](C)O)C(C)C)C(C)C)C(=O)N[C@@H](Cc1cnc[nH]1)C(=O)N[C@@H](CC(N)=O)C(=O)N[C@@H](Cc1ccccc1)C(=O)N[C@@H](CCCCN)C(=O)N[C@@H](CCCNC(=N)N)C(=O)N[C@@H](CCCCN)C(=O)O (H-T[NMeA]VQMAVFIHNFKRK-OH)	75%	86%
CC[C@H](C)[C@H](NC(=O)[C@H](Cc1ccccc1)NC(=O)[C@@H](NC(=O)[C@H](C)NC(=O)[C@@H](CCSC)NC(=O)[C@H](CCC(N)=O)NC(=O)[C@@H](NC(=O)[C@H](C)NC(=O)[C@@H](N)[C@@H](C)O)C(C)C)C(C)C)C(=O)N[C@@H](Cc1cnc[nH]1)C(=O)N[C@@H](CC(N)=O)C(=O)N[C@@H](Cc1ccccc1)C(=O)N[C@@H](CCCCN)C(=O)N[C@@H](CCCNC(=N)N)C(=O)N[C@@H](CCCCN)C(=O)O	127%	196%
CC[C@H](C)[C@H](NC(=O)[C@H](Cc1ccccc1)NC(=O)[C@@H](NC(=O)[C@H](C)NC(=O)[C@H](CCSC)NC(=O)[C@H](CCC(N)=O)NC(=O)[C@@H](NC(=O)[C@H](C)NC(=O)[C@@H](N)[C@@H](C)O)C(C)C)C(C)C)C(=O)N[C@@H](Cc1cnc[nH]1)C(=O)N[C@H](CC(N)=O)C(=O)N[C@@H](Cc1ccccc1)C(=O)N[C@@H](CCCCN)C(=O)N[C@@H](CCCNC(=N)N)C(=O)N[C@@H](CCCCN)C(=O)O	116%	92%
CC[C@H](C)[C@H](NC(=O)[C@H](Cc1ccccc1)NC(=O)[C@@H](NC(=O)[C@H](C)NC(=O)[C@H](CCSC)NC(=O)[C@H](CCC(N)=O)NC(=O)[C@@H](NC(=O)[C@H](C)NC(=O)[C@@H](N)[C@@H](C)O)C(C)C)C(C)C)C(=O)N[C@@H](Cc1cnc[nH]1)C(=O)N[C@@H](CC(N)=O)C(=O)N[C@@H](Cc1ccccc1)C(=O)N[C@@H](CCCCN)C(=O)O (H-TAVQMAVFIHNFK-OH)	120%	127%
CC[C@H](C)[C@H](NC(=O)[C@H](Cc1ccccc1)NC(=O)[C@@H](NC(=O)[C@H](C)NC(=O)[C@H](CCSC)NC(=O)[C@H](CCC(N)=O)NC(=O)[C@@H](NC(=O)[C@H](C)NC(=O)[C@@H](N)[C@@H](C)O)C(C)C)C(C)C)C(=O)N[C@@H](Cc1cnc[nH]1)C(=O)N[C@@H](CC(N)=O)C(=O)N[C@@H](C)C(=O)N[C@@H](CCCCN)C(=O)N[C@@H](CCCNC(=N)N)C(=O)N[C@@H](CCCCN)C(=O)O (H-TAVQMAVFIHNAKRK-OH)	134%	193%
